In assay [1] the target is T1, p110α/p85α (Homo sapiens, UniProt P42336).
T1 construct: Full-length p110α was expressed in a complex with full-length p85α (for biochemistry and HDX-MS); 6xHis followed by TEV protease site (N); made in house; host or cells: Spodoptera frugiperda Sf9 (baculovirus co-infection; plasmids OP831 and OP809)
The experiment in a line: HDX-MS of full-length p110α/p85α. The conditions noted are these: wild-type p110α/p85α. The text has this: The inventors used hydrogen-deuterium exchange mass spectrometry (HDX-MS) which allows the investigation of compound binding sites and conformational changes using soluble, native proteins, and which has been key to unravel the molecular mechanisms of physiological activation of class IA PI3Ks. Class IA PI3K activation occurs through de-inhibition of the auto-inhibited p85/p110 complex, via the release of inhibitory interactions between p85 and p110, upon binding of the complex to bis-phosphorylated motifs in membrane-resident receptors or cytosolic adaptors. […]
In total, three biological replicates, i.e., three separate protein preparations, each with exchange experiments were carried out in triplicate were conducted. […] A “blank” sample of protein dilution buffer with quench was run between samples, and carry-over of peptides was routinely monitored. […] Data was analysed using Protein Lynx Global Server (Waters) and DynamX (Waters). […] Data quality, experiment design, and reporting of data meets the criteria as determined by the HDX-MS community (Masson, G. R. et al. Nat Methods 16, 595-602 (2019)). […]

For assay [2], the system named is PIP3 levels in MEFs. The experiment in a line: PIP3 measurement by mass spectrometry in MEFs. In kind it is cell-based, mouse. On the procedure:
FIG. 21. a, MEFs were stimulated for the indicated time points with 1938 (5 μM) or for 2 min with PDGF (20 ng/ml) or insulin (100 nM), followed by lipid extraction and PIP3 measurement by mass spectrometry. b, MEFs were stimulated for 2 min with increasing doses of 1938 or PDGF, followed by lipid extraction and PIP3 measurement by mass spectrometry. c, A549 cells were stimulated for 2 min with increasing doses of 1938 or insulin, or 10 ng/ml PDGF, followed by lipid extraction and PIP3 measurement by mass spectrometry.
Class I PI3Ks phosphorylate the PtdIns(4,5)P2 lipid in the plasma membrane to generate PtdIns(3,4,5)P3 (or PIP3), which can be converted to PtdIns(3,4)P2 by the action of 5-phosphatases. Treatment of MEFs (Mouse Embryonic Fibroblasts) with 1938 very rapidly (within 30 sec) led to increased PIP3 levels, as assessed by mass spectrometry, maxing at 5 min and maintained at this maximum level for up to 40 min (FIG. 21a). […] The observation of different levels of PIP3 induced by these growth factors is in line with the notion that PI3Kα is the sole mediator of PIP3 production downstream of insulin. This contrasts with PDGF, which activates both PI3Kα and PI3Kβ, with the latter PI3K isoform contributing substantially to acute PDGF-stimulated PIP3 generation in MEFs, correlating with the higher PIP3 levels induced by this agonist compared to insulin and 1938 (FIG. 21a). In the same experiment as in FIG. 21a, clear PI(3,4)P2 signal was detected in MEFs upon PDGF stimulation but not with 1938 (at 5 μM). This is consistent with a higher threshold for detection of PI(3,4)P2 compared to PIP3 by mass spectrometry (due primarily to background contamination, as discussed by Malek et al.), together with the relatively lower PI3K activation by 1938 compared to a high dose of PDGF, as is also illustrated by the experiments shown below.
These maximal 1938-induced PIP3 levels are below those required to give rise to sufficient PI(3,4)P2 to be detectable by mass spectrometry, a conclusion also supported by the observation that substantial levels of PIP3 induced by lower doses of PDGF (e.g. 0.5 ng/ml) were also not sufficient to give rise to levels of PI(3,4)P2 detectable by mass. […] A strong PIP3 response was also observed with insulin in these cells, with no PIP3 induced by PDGF, in line with the absence of this receptor in epithelial cells, including in A549.

Assay [3] deals with PI3Kα-WT MEFs. The experiment in a line: Cell cycle progression by EdU incorporation in MEFs. In kind it is cell-based, mouse. How it is done: Click-IT EdU strategy was used according to manufacturer instructions (Sigma-Aldrich #BCK-FC488-50). Briefly, MEFs were seeded at 50,000 cells per well in 6-well plates in DMEM supplemented with 10% FBS and 1% P/S, and allowed to attach overnight. The next day, cells were serum-starved for 5 h prior to compound addition in fresh serum-free DMEM. At different time points, cells were pulsed for 3 h with 10 μM EdU, followed by collection by trypsinization and fixation with 3.7% FA in PBS for 15 min in the dark, washed in 3% BSA and permeabilized in 1× saponin-based permeabilization buffer for 20 min in the dark. EdU was then detected using the FAM-azide assay cocktail for 30 min in the dark. Cells were washed twice in 1× saponin-based permeabilization buffer followed by analysed with flow cytometer (Novocyte Advanteon flow cytometer, Agilent).

The values that follow come from patent publication US20250263404A1, “AMINOPYRIDINES AS ACTIVATORS OF PI3 KINASE” (UCL Business Ltd, priority 2021, published 2025).

pEC50: −log10 of the molar value.

T1 sequence (P42336 whole entry): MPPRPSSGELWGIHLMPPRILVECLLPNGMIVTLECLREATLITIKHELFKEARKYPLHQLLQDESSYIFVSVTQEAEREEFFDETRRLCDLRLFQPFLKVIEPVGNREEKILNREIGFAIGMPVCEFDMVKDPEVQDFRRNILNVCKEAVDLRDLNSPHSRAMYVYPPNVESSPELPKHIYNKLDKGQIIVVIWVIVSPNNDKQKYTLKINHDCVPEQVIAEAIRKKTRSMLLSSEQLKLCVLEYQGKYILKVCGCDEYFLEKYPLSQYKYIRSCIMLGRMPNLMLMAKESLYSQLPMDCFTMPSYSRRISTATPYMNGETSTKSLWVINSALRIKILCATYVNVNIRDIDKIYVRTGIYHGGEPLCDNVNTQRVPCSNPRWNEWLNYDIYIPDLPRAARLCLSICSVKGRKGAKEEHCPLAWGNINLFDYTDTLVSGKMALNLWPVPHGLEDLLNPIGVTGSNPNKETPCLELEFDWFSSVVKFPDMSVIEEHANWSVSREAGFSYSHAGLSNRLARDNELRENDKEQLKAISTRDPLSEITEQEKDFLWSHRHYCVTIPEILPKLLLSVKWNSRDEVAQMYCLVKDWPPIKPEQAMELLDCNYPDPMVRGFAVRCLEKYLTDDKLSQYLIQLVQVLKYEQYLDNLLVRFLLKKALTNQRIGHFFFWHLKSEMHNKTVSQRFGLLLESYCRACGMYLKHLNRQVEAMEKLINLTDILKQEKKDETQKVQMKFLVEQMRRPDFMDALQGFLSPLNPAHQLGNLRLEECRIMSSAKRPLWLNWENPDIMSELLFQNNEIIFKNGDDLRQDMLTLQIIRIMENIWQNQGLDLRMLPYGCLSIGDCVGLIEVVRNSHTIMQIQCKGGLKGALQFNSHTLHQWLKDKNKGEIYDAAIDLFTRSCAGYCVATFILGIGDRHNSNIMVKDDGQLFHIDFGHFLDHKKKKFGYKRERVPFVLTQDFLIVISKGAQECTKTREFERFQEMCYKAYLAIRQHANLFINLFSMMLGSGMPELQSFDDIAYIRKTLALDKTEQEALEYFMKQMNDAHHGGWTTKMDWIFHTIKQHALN
T1 sequence (P27986 whole entry partner): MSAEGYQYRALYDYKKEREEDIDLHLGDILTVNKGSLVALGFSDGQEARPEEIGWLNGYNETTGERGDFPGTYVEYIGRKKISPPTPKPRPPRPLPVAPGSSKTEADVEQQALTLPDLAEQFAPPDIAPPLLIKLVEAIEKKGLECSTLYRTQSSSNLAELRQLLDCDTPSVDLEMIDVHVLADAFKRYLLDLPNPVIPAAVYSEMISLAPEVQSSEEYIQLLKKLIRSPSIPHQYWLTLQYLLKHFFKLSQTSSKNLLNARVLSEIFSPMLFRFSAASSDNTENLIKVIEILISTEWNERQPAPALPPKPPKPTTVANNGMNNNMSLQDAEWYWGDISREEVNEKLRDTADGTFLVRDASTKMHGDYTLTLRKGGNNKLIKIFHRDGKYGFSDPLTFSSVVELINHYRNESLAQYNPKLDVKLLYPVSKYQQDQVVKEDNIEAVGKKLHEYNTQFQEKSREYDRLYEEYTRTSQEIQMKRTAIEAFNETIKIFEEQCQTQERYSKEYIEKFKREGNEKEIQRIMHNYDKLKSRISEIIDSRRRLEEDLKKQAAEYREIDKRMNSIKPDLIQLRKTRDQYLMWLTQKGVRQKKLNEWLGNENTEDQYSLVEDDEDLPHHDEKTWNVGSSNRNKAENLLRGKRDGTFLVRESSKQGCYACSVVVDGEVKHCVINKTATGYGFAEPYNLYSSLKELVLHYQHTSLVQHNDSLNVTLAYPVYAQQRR

What is called pEC50 is −log10 of the EC50, conventionally taken in molar units. Take `CCN1CCN(c2ccc(Nc3cc(Nc4cccc5c4N(C(C)=O)CC5)ccn3)cc2)CC1` [Example 1938]: in assay [1], the “Movement of the adapter-binding domain” value is reported as “−/?”. Further, in assay [2] (2 min), the “concentration at which PIP3 induction plateaus” value was “around 10 μM”. Also, in assay [2] (1938 5 μM), the “duration of maximum PIP3 level” value is listed as “up to 40 min”, the “time of maximum PIP3 level” value is on record as 5 min and the “time to increased PIP3 levels” value was no more than 30 s. Moreover, in assay [2] (Mus musculus, 2 min, fixed 2 min time point, read-out: EC50 of PIP3 induction), the pEC50 was roughly 5.30. Also, the “cell cycle progression (EdU incorporation)” value in assay [3] is on record as “induced cell cycle progression”.
